Measured values published in paper PMC7486443, “Generation of Phenothiazine with Potent Anti-TLK1 Activity for Prostate Cancer Therapy” (iScience, 2020).

Experiments:
Test in all cases: biochemical
Set-up in all cases: DiscoverX KINOMEscan scanMAX competition binding panel, single concentration, percent of control; remaining binding: dose or concentration left out as unconfirmed
Details in all cases: KINOMEscan binding, percent of control; read-out: Table S4_SCANMAX REPORT - related to Fig. 1 / Percent Control
[1] = biological target: TTK (Homo sapiens, UniProt P33981)
Chain of TTK (P33981 whole entry): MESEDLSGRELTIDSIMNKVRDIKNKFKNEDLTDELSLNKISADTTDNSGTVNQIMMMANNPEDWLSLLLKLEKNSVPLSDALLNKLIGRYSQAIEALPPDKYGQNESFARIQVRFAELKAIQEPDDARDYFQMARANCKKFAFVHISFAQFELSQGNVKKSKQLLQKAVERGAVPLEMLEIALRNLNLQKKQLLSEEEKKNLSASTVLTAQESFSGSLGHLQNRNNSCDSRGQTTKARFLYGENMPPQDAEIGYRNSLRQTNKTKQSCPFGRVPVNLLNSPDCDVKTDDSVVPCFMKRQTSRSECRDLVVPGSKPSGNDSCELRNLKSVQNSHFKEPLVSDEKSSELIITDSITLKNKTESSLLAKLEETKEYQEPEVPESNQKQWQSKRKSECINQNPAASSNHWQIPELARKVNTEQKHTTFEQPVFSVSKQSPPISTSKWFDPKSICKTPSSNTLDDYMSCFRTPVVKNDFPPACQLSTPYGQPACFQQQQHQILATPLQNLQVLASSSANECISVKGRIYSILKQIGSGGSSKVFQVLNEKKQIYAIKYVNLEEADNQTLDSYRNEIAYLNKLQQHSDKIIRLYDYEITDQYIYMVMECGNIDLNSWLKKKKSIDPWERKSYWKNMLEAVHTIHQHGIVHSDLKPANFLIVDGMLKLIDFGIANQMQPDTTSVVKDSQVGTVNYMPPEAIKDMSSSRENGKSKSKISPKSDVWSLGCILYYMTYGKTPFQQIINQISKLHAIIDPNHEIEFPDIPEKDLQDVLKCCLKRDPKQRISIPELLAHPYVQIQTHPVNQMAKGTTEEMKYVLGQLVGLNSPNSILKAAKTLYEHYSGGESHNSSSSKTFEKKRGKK

[2] = biological target: CAMK2A (Homo sapiens, UniProt Q9UQM7)
[3] = biological target: EPHB6 (Homo sapiens, UniProt O15197)
Chain of EPHB6 (O15197 whole entry): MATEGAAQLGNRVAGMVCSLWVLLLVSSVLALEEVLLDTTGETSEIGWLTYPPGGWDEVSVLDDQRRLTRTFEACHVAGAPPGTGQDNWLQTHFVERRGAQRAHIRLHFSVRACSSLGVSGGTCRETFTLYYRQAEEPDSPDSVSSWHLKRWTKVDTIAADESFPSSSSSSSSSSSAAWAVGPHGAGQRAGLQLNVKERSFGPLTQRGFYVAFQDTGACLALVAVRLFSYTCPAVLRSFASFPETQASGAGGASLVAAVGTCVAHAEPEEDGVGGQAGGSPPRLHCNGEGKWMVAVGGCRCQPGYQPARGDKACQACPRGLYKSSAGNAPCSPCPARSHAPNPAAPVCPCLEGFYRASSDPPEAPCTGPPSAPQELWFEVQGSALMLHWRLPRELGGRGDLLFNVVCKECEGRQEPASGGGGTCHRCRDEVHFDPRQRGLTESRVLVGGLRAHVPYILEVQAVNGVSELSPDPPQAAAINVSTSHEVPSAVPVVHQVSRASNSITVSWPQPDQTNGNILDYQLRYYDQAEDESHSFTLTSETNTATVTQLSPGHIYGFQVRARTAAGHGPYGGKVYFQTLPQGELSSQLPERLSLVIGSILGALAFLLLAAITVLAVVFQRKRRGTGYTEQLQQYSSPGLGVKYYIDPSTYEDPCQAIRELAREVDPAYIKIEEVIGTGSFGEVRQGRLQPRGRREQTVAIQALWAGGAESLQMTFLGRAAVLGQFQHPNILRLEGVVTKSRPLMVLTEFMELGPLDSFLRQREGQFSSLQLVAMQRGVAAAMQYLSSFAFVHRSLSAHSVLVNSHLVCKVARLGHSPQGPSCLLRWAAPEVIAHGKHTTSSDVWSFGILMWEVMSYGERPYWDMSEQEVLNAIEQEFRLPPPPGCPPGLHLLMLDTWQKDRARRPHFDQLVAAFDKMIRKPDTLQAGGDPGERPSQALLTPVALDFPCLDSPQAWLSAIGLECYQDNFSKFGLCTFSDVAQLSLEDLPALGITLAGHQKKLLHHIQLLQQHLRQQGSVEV

[4] = biological target: PIK3CA(C420R) (Homo sapiens, UniProt P42336, C420R)
Chain of PIK3CA(C420R) (P42336 whole entry C420R): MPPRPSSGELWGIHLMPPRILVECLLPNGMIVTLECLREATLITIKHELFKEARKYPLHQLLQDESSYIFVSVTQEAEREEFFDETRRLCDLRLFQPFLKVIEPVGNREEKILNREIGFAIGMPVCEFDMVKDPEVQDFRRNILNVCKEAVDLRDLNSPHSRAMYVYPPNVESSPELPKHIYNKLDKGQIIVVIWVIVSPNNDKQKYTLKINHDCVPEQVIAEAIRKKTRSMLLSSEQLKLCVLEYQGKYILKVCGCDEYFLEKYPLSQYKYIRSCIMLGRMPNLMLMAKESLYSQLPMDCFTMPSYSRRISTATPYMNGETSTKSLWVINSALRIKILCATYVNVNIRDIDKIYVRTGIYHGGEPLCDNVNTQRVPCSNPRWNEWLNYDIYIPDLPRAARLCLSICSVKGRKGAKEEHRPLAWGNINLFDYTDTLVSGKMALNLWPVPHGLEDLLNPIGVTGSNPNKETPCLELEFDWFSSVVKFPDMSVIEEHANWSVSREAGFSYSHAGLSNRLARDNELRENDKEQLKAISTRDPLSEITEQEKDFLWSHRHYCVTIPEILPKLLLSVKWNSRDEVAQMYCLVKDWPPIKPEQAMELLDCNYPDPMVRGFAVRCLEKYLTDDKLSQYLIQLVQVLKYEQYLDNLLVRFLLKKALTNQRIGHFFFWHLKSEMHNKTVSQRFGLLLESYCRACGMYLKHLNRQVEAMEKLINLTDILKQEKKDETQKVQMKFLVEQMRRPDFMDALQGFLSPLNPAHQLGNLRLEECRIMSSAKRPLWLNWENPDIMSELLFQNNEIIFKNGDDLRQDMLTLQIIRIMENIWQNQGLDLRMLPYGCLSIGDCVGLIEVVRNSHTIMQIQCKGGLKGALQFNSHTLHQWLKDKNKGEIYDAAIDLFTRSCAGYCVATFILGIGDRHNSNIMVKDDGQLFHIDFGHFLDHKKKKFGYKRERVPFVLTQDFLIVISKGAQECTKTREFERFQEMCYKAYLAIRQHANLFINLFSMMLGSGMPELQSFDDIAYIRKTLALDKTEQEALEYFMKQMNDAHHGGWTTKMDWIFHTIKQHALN

[5] = biological target: T1, PCTK3 (Homo sapiens, UniProt Q07002)
T1 construct: gene CDK18

[6] = biological target: PRKCE (Homo sapiens, UniProt Q02156)
Chain of PRKCE (Q02156 whole entry): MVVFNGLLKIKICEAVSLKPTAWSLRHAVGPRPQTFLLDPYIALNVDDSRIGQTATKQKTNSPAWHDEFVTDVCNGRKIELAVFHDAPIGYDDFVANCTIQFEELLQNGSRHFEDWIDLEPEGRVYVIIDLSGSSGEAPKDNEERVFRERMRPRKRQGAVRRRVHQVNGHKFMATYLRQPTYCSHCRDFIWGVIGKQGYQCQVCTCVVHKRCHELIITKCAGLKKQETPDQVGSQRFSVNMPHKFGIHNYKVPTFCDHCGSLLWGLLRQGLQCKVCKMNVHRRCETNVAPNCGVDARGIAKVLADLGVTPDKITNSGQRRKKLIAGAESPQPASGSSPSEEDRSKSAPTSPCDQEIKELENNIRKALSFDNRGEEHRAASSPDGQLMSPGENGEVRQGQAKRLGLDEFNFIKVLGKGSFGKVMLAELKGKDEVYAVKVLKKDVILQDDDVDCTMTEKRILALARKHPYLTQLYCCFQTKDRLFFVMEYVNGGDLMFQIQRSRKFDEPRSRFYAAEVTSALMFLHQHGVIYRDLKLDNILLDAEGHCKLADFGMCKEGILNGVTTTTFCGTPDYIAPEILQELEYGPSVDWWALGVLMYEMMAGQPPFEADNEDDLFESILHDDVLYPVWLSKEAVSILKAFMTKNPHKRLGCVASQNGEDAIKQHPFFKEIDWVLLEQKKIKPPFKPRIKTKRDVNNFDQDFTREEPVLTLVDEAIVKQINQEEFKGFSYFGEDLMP

[7] = biological target: T2, TRKB (Homo sapiens, UniProt Q16620)
T2 construct: gene NTRK2

[8] = biological target: T3, MRCKA (Homo sapiens, UniProt Q5VT25)
T3 construct: gene CDC42BPA

[9] = biological target: T4, RSK4(Kin.Dom.1-N-terminal) (Homo sapiens, UniProt Q9UK32)
T4 construct: gene RPS6KA6; Kin.Dom.1-N-terminal

[10] = biological target: TESK1 (Homo sapiens, UniProt Q15569)
[11] = biological target: BRAF(V600E) (Homo sapiens, UniProt P15056, V600E)
[12] = biological target: IRAK1 (Homo sapiens, UniProt P51617)
Chain of IRAK1 (P51617 whole entry): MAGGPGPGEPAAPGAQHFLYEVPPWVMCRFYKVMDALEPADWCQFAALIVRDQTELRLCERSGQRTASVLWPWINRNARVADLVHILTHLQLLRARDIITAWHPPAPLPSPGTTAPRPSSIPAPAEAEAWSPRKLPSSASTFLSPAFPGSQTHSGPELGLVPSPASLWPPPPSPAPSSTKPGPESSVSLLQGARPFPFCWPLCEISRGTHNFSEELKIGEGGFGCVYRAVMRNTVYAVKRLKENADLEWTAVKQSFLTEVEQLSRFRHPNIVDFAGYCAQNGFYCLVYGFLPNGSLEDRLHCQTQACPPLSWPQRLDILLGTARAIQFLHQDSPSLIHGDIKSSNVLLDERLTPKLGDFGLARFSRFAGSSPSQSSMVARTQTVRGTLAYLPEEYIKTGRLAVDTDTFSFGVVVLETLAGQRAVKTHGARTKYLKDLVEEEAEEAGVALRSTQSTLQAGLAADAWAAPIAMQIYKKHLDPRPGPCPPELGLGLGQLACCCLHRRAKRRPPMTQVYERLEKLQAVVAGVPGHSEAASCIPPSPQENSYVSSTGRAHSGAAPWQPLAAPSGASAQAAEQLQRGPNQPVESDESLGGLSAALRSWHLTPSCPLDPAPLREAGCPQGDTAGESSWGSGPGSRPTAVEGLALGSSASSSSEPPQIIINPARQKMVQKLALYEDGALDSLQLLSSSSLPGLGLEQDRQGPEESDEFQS

[13] = biological target: GRK3 (Homo sapiens, UniProt P35626)
Chain of GRK3 (P35626 whole entry): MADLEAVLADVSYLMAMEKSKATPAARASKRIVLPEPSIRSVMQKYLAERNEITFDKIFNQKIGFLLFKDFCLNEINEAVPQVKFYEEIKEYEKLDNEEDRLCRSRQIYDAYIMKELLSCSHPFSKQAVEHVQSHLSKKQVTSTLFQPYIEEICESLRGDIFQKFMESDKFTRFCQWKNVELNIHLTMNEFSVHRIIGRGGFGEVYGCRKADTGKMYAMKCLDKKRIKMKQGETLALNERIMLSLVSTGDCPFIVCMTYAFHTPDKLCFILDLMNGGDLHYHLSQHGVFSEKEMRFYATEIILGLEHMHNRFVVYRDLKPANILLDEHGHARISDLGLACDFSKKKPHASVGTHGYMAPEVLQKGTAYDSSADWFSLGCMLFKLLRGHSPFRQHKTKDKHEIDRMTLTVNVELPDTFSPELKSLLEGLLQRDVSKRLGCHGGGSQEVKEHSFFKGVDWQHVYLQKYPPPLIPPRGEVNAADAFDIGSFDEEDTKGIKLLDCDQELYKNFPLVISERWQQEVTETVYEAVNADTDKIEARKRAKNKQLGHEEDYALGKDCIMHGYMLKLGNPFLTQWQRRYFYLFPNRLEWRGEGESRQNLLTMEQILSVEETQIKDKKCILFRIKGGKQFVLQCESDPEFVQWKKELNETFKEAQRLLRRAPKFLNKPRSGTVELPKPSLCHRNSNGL

[14] = biological target: T5, PRKR (Homo sapiens, UniProt P19525)
T5 construct: gene EIF2AK2

[15] = biological target: T6, ASK1 (Homo sapiens, UniProt Q99683)
T6 construct: gene MAP3K5

[16] = biological target: CSNK1E (Homo sapiens, UniProt P49674)
[17] = biological target: ACVRL1 (Homo sapiens, UniProt P37023)
[18] = biological target: CLK2 (Homo sapiens, UniProt P49760)

## c1ccc2c(c1)Sc1ccccc1N2CCN1CCOCC1 [J54]
[1]
  remaining binding: 17%
[2]
  remaining binding: 78%
[3]
  remaining binding: 74%
[4]
  remaining binding: 88%
[5]
  remaining binding: 100%
[6]
  remaining binding: 100%
[7]
  remaining binding: 89%
[8]
  remaining binding: 99%
[9]
  remaining binding: 100%
[10]
  remaining binding: 100%
[11]
  remaining binding: 100%
[12]
  remaining binding: 100%
[13]
  remaining binding: 93%
[14]
  remaining binding: 93%
[15]
  remaining binding: 98%
[16]
  remaining binding: 100%
[17]
  remaining binding: 100%
[18]
  remaining binding: 79%
